Measured values taken from PMC2033546, “Effects of somatostatin analogue RC-160 and bombesin/gastrin-releasing peptide antagonists on the growth of human small-cell and non-small-cell lung carcinomas in nude mice” (British Journal of Cancer, 1994).
Where no end group is shown, it is not given here. [ ]: non-standard residue; d: D form.

Key:
[1] = system: LNCaP prostatic cancer cells; conditions: LNCaP cells in culture; ref Gattani et al., 1990; cited from earlier work
From the text: Br. J. Cancer (1994). 70, 886 892 ? Macmillan Press Ltd..

[2] = system: IGF-I receptors in membranes of SCLC H69 tumours; experiment: IGF-I receptor binding on H69 tumour membranes after in vivo treatment; design: species or system human; conditions: Table IV, Experiment I (SCLC-H69), control 294, done once
From the text: (§1) Br. J. Cancer (1994). 70, 886 892 ? Macmillan Press Ltd.. […] Bombesin GRP antagonists. […] Lung carcinoma is the leading cause of cancer-related deaths in the western world. It is estimated that in 1992 there were approximately 168,000 new cases of lung cancer in the US and that about 146,000 deaths occurred from this disease (Boring et al., 1992). […] The growth factors such as bombesin/gastrin-releasing pep- tide (GRP), epidermal growth factor, (EGF), transforming growth factor a (TGF-x) and insulin-like growth factor I(IGF-I) appear to play a role in the proliferation and pro- gression of lung cancer (Cuttitta et al., 1985; Veale et al., 1987; Minuto et al., 1988; Siegfried & Owens, 1988; Macaulay et al., 1990; Tateishi et al., 1991; Damstrup et al., 1992; Sethi & Rozengurt, 1992; Rabiasz et al., 1992; Moody & Cuttitta, 1993). […] Tpi is 2,3,4,9-tetrahydro- Correspondence: A.V. Schally (151). VA Medical Center, 1601 Per- dido Street. New Orleans, LA 70146. USA. Received 1 March 1994; and in revised form 5 July 1994. Br. J. Cancer (1994), 70, 886-892 C Macmillan Press Ltd., 1994 PEPTIDE ANALOGUES IN LUNG CANCER 8U7 lH-pyrido [3,4bjindol-3-carboxylic acid, a conformationally constrained secondary amine derivate of tryptophan and Tac is thiazolidine-4-carboxylic acid. […] Animals Male athymic NCr nulmu nude mice, approximately 6 weeks old on arrival, were obtained from the NCI (Bethesda, MD, USA) and maintained under pathogen-limited conditions. Cell lines The human SCLC cell line NCI-H69, was obtained from the American Type Cell Culture (ATCC), Rockville, MD, USA and the non-SCLC cell line NCI-H157, from Dr H. Oie, NCI-Navy Medical Oncology Branch, Bethesda, MD, USA. These cell lines were cultured in RPMI-1640 medium supple- mented with 4 mM L-glutamine, 50 units ml-I penicilln G sodium, SOigml-' streptomycin sulphate, 0.125pgml-' amphotericin B and 10% fetal bovine serum at 3TC in a humidified 95% air/5% carbon dioxide atmosphere. CeLs were passaged weekly and routinely monitored for myco- plasma contamination using a detection kit (Boehringer- Mannheim, Mannheim, Germany). All culture media com- ponents were purchased from Gibco (Grand Island, NY, USA). […] The number of mitotic and apoptotic cells per 1,000 cells was determined, and the percentage area of necrosis in tumour sections was examined using the point-counting method (Szepeshazi et al., 1991, 1992), in which the crossing points of an ocular net that coincide with necrosis in various sections are counted. Radiommunoassays Serum levels of growth hormone were determined by double- antibody radioimmunoassay (RIA) using materials supplied by the National Hormone and Pituitary Program of the National Institute of Diabetes and Digestive and Kidney Diseases (NIDDK).

[3] = system: EGF receptors in membranes of non-SCLC H157 tumours; experiment: EGF receptor binding on H157 tumour membranes after in vivo treatment; design: species or system human
From the text: as §1

[4] = system: EGF receptors in membranes of SCLC H69 tumours; experiment: EGF receptor binding on H69 tumour membranes after in vivo treatment; design: species or system human
From the text: as §1, with “USA). Receptor assays Preparation of membranes for receptor studies was described previously (Halmos et al., 1993). Iodinated EGF and IGF-I were purchased from Amersham (Arlington Heights, IL, USA). Radioiodination of other peptides and receptor bind- ing of EGF, IGF-I, somatostatin and bombesin/GRP were performed as previously described (Srkalovic et al., 1989; Szepeshazi et al., 1992). Complete displacement assays on tumour membranes were done only once because of the shortage of tumour material. The LIGAND PC computerised curve-fitting programme of Munson and Rodbard (1980) was used to determine the types of receptor binding, dissociation constant (Kd) values, and the maximal binding capacity (BDj) of receptors.” for “USA).”

For “[dF]CY[dW]KVCW-NH2 (cysteine pairing not given here) [RC-160, Somatostatin analogue RC-160]”, which “Effect on [3H]thymidine incorporation (in words)” value [1] is on record?
The value was “inhibitory effect”.

What about the “IGF-I maximal binding capacity (Bmax)” value [2] of the same substance?
The value was 176 fmol mg' protein.

What about the “EGF maximal binding capacity (Bmax)” value ([3]; Table IV, Experiment II (non-SCLC H157), tumour membranes after in vivo treatment, control 249, done once) of the same substance?
Its value is 100 fmol mg' protein.

And the “EGF binding capacity on H157 tumours (in words)” value ([3]; after in vivo treatment)?
Its value is “decreased”.

And the “EGF maximal binding capacity (Bmax)” value ([4]; Table IV, Experiment I (SCLC-H69), tumour membranes after in vivo treatment, control 278, ten-point displacement in triplicate tubes, done once)?
Its value is 174 fmol mg' protein.

What about the “EGF receptors on H69 tumours (in words)” value ([4]; after in vivo treatment) of the same substance?
The value was “down-regulated”.
